Experimental data from paper PMC6792352, “Limited Chemical Structural Diversity Found to Modulate Thyroid Hormone Receptor in the Tox21 Chemical Library” (Environmental Health Perspectives, 2019).

Assay: in vitro
Settings: rat, gh3-tre-luc cells

Structure (SMILES) | CC50 at 24 h (AC50 (uM) modified / 1000) | other results
NC(=O)c1cccc([N+](=O)[O-])c1 [3-Nitrobenzamide] | > 90 µM | –
O=C(O)c1cccc([N+](=O)[O-])c1 [3-Nitrobenzoic acid] | > 90 µM | –
O=C(Cl)c1cccc([N+](=O)[O-])c1 [3-Nitrobenzoyl chloride] | > 90 µM | –
O=[N+]([O-])c1cccc(CCl)c1 [3-Nitrobenzyl chloride] | > 90 µM | –
O=[N+]([O-])c1cccc(O)c1 [3-Nitrophenol] | – | CC50 at 24 h (AC50 (uM) modified / 1000, Tox21_110001=Tox21_200022, viability, 1 nM T3 present, 24 h): > 90 µM
O=C(O)CC[N+](=O)[O-] [3-Nitropropionic acid] | – | CC50 at 24 h (AC50 (uM) modified / 1000, Tox21_110001=Tox21_202460, viability, 1 nM T3 present, 24 h): > 90 µM
CCCCCC(=O)CC [3-Octanone] | > 90 µM | –
CC(=O)CC(=O)Nc1ccc2[nH]c(=O)[nH]c2c1 [3-Oxo-N-(2-oxo-2,3-dihydro-1H-benzimidazol-5-yl)butanamide] | > 90 µM | –
CCC(=O)CC [3-Pentanone] | > 90 µM | –
C/C=C/CC#N [3-Pentenenitrile] | > 90 µM | –
O=Cc1cccc(Oc2ccccc2)c1 [3-Phenoxybenzaldehyde] | – | CC50 at 24 h (AC50 (uM) modified / 1000, Tox21_110001=Tox21_202368, viability, 1 nM T3 present, 24 h): > 90 µM
OCc1cccc(Oc2ccccc2)c1 [3-Phenoxybenzenemethanol] | > 90 µM | –
O=C(O)c1cccc(Oc2ccccc2)c1 [3-Phenoxybenzoic acid] | > 90 µM | –
OCCCc1ccccc1 [3-Phenyl-1-propanol] | > 50 µM | –
OC/C=C/c1ccccc1 [3-Phenyl-2-propen-1-ol] | > 100 µM | –
O=C(/C=C/c1ccccc1)OC/C=C/c1ccccc1 [3-Phenyl-2-propen-1-yl 3-phenylacrylate] | > 90 µM | –
CC(CC=O)c1ccccc1 (stereo not shown) [3-Phenylbutyraldehyde] | > 90 µM | –
CCCC(CC)c1ccccc1 (stereo not shown) [3-Phenylhexane] | > 90 µM | –
CC(C)C(=O)OC/C=C/c1ccccc1 [3-Phenylprop-2-en-1-yl 2-methylpropanoate] | > 90 µM | –

Structure (SMILES) | CC50 at 24 h (AC50 (uM) modified / 1000) | other results
CC(=O)OC/C=C/c1ccccc1 [3-Phenylprop-2-en-1-yl acetate] | > 90 µM | –
O=C/C=C/c1ccccc1 [3-Phenylprop-2-enal] | > 90 µM | –
O=CCCc1ccccc1 [3-Phenylpropanal] | > 90 µM | –
CC(=O)OCCCc1ccccc1 [3-Phenylpropyl acetate] | > 90 µM | –
O=C(/C=C/c1ccccc1)OCCCc1ccccc1 [3-Phenylpropyl cinnamate] | > 90 µM | –
CCC=C1OC(=O)c2ccccc21 [3-Propylidenephthalide] | > 90 µM | –
O=C1CCN(c2ccccc2)N1 [3-Pyrazolidinone,1-phenyl-] | > 90 µM | –
Nc1cccnc1 [3-Pyridinamine] | – | CC50 at 24 h (AC50 (uM) modified / 1000, Tox21_110001=Tox21_201650, viability, 1 nM T3 present, 24 h): > 90 µM
N#Cc1cccnc1 [3-Pyridinecarbonitrile] | > 90 µM | –
O=S1(=O)CC=CC1 [3-Sulfolene] | > 90 µM | –
CCCCCCCCCCCSCC(=O)O [3-Thiatetradecanoic acid] | 50.2 µM | –
O=[N+]([O-])c1ccc(O)cc1C(F)(F)F [3-Trifluoromethyl-4-nitrophenol] | 41.4 µM | –
CC(C)(C)c1cc(CCC(=O)NN)cc(C(C)(C)C)c1O [3-[3,5-DI(tert-butyl)-4-hydroxyphenyl]propanohydrazide] | > 90 µM | –
O=C(CCS)OCC(COC(=O)CCS)(COC(=O)CCS)COC(=O)CCS [3-[(3-Sulfanylpropanoyl)oxy]-2,2-bis{[(3-sulfanylpropanoyl)oxy]methyl}propyl 3-sulfanylpropanoate] | > 90 µM | –
N#CCCN(CCO)CCO [3-[Bis(2-hydroxyethyl)amino]propanenitrile] | > 90 µM | –
CCN(CCC#N)c1ccccc1 [3-[Ethyl(phenyl)amino]propanenitrile] | > 90 µM | –
CC(C)(C)c1cccc(O)c1 [3-tert-Butylphenol] | > 90 µM | –
O=C(CCN1CC1)OCC(CO)(COC(=O)CCN1CC1)COC(=O)CCN1CC1 [3-{[3-(Aziridin-1-yl)propanoyl]oxy}-2-({[3-(aziridin-1-yl)propanoyl]oxy}methyl)-2-(hydroxymethyl)propyl 3-(aziridin-1-yl)propanoate] | > 90 µM | –
